Results taken from US8962529B2, “Substituted picolinic acids, salts and acid derivatives thereof, and use thereof as herbicides” (Bayer Cropscience AG, priority 2010, dated 2015).

Columns and labels:
Format in all cases: in vivo
ABUTH = experiment: Post-emergence herbicidal action against weed plants (greenhouse pot test); conditions: one-leaf stage, application rate 320 g/ha, scored visually after about 3 weeks vs untreated controls, 100% = plants have died
Experimental: (§1) Seeds of mono- and dicotyledonous weed and crop plants are set out in wood fiber pots in sandy loam soil, covered with soil and cultivated in a greenhouse under good growth conditions. 2 to 3 weeks after sowing, the trial plants are treated at the one-leaf stage. The inventive compounds formulated in the form of wettable powders (WP) or as emulsion concentrates (EC) are then sprayed onto the green plant parts as an aqueous suspension or emulsion with a water application rate of 600 to 800 l/ha (converted) with addition of 0.2% wetting agent. After the trial plants have stood in the greenhouse under optimal growth conditions for about 3 weeks, the action of the preparations is scored visually in comparison to untreated controls (herbicidal action in percent (%): 100% action=plants have died, 0% action=like control plants).

Veronica persica [1] = experiment: as above; conditions: one-leaf stage, application rate 320 g/ha, scored visually after about 3 weeks vs untreated controls, 100% = plants have died
Experimental: as §1

Veronica persica [2] = experiment: Pre-emergence herbicidal action against weed plants (greenhouse pot test); conditions: application rate 320 g/ha, scored visually after 3 weeks vs untreated controls, 100% = plants have died, 0% = like control plants
Description: (§2) Seeds of mono- and dicotyledonous weed and crop plants are set out in wood fiber pots in sandy loam soil and covered with soil. The inventive compounds formulated in the form of wettable powders (WP) or as emulsion concentrates (EC) are then applied to the surface of the covering earth as an aqueous suspension or emulsion at a water application rate of 600 to 800 l/ha (converted) with addition of 0.2% wetting agent. After the treatment, the pots are placed in a greenhouse and kept under good growth conditions for the test plants. The damage to the test plants is scored visually after an experiment time of 3 weeks in comparison to untreated controls (herbicidal action in percent (%): 100% action=plants have died, 0% action=like control plants).

Ipomoea purpurea = experiment: Post-emergence herbicidal action against weed plants (greenhouse pot test); conditions: one-leaf stage, application rate 320 g/ha, scored visually after about 3 weeks vs untreated controls, 100% = plants have died
Experimental: as §1

Amaranthus retroflexus = experiment: Pre-emergence herbicidal action against weed plants (greenhouse pot test); conditions: application rate 320 g/ha, scored visually after 3 weeks vs untreated controls, 100% = plants have died, 0% = like control plants
Description: as §2

Structure (SMILES)	herbicidal action in percent, ABUTH (ABUTH)	herbicidal action in percent, VERPE (Veronica persica [1])	herbicidal action in percent, VERPE (Veronica persica [2])	herbicidal action in percent, PHBPU (Ipomoea purpurea)	herbicidal action in percent, AMARE (Amaranthus retroflexus)
COC(=O)c1nc(-c2ccc(Cl)c(C3CO3)c2F)cc(N)c1Cl (centres unmarked) [Example 9-618]	80%	90%	100%	–	–
COC(=O)c1nc(-c2ccc(Cl)c(C3COC(C)(C)O3)c2F)cc(N)c1Cl (centres unmarked) [Example 9-842]	80%	100%	100%	90%	90%
